17 compounds from patent publication US20150191469A1, “COMPOUNDS AND METHODS FOR TREATING HIV” (priority 2012, published 2015) can be followed below.

Structures are written as SMILES.

For this assay, the system named is HIV. Put plainly: MT4 assay: antiviral HIV activity (cell protection, cell titer glo readout at 96 hours). The settings on record: Human immunodeficiency virus 1, MT4, 96 h, MT4 cells, cell titer glo readout at 96 hours, 10 point dose response; read-out: HIV MT4 Assay IC50. It counts as cell-based. The method in brief: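 MT-4 cells infected with HIV, with inhibition readout by CellTiter-Glo luminescence at 96 h relative to no-compound control. Cytotoxicity measured in parallel under the same conditions. IC50 from a 10-point, 3-4-fold dilution series spanning >1000-fold, fitted with a four-parameter logistic equation.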
A general note: In ATP-based viability assays light output follows the ATP content of the culture.
One may read the IC50 as the concentration that inhibits the measured activity by half. For `Cc1nc2c(cc(-c3ccnc(-c4ccc5c(cnn5C)c4)c3)n2C)c(C)c1[C@H](OC(C)(C)C)C(=O)O` [Example 426], the IC50 worked out at 45000 nM.

For the compound `Cc1nc2c(cc(-c3ccnc(-c4ccc5c(cnn5C)c4)c3)n2C)c(-c2ccc3c(c2C)OCCO3)c1[C@H](OC(C)(C)C)C(=O)O` [Example 427], the IC50 amounted to 2.7 nM.

Consider `Cc1nc2c(cc(-c3ccnc(-c4ccc5c(cnn5C)c4)c3)n2C)c(-c2ccc3c(c2)CCCO3)c1[C@H](OC(C)(C)C)C(=O)O` [Example 428], for which the IC50 came to 4.6 nM.

On to `Cc1nc2c(cc(-c3ccnc(N4CCCN(C5COC5)CC4)c3)n2C)c(-c2ccc3c(c2)CCCO3)c1[C@H](OC(C)(C)C)C(=O)O` [Example 429], for which the IC50 is 75 nM.

`Cc1nc2c(cc(-c3ccnc(N4CCCN(C5COC5)CC4)c3)n2C)c(-c2ccc3c(c2C)CCCO3)c1[C@H](OC(C)(C)C)C(=O)O` [Example 430]: the IC50 came to 16.3 nM.

Consider `Cc1nc2c(cc(-c3ccnc(N4CCCN(C5COC5)CC4)c3)n2C)c(-c2ccc(Cl)cc2)c1[C@H](OC(C)(C)C)C(=O)O` [Example 431], for which the IC50 came out at 143 nM.

`Cc1ccc(-c2c([C@H](OC(C)(C)C)C(=O)O)c(C)nc3c2cc(-c2ccnc(N4CCCN(C5COC5)CC4)c2)n3C)cc1` [Example 432]: the IC50 came out at 200 nM.

`Cc1nc2c(cc(-c3ccnc(N4CCCN(C5COC5)CC4)c3)n2C)c(-c2cc(F)c3c(c2C)NCCO3)c1[C@H](OC(C)(C)C)C(=O)O` [Example 433]: the IC50 was 127 nM.

With `Cc1nc2c(cc(-c3ccnc(N4CCCN(C5COC5)CC4)c3)n2C)c(-c2ccc3c(c2C)NCCO3)c1[C@H](OC(C)(C)C)C(=O)O` [Example 434], the IC50 is 51.6 nM.

Take `Cc1nc2c(cc(-c3ccnc(N4CCCN(C5COC5)CC4)c3)n2C)c(-c2ccccc2)c1[C@H](OC(C)(C)C)C(=O)O` [Example 435]: the IC50 was found to be 3010 nM.

For the compound `Cc1nc2c(cc(-c3ccnc(-c4ccc5c(cnn5C)c4)c3)n2C)c(C2=CCC(C)(C)CC2)c1[C@H](OC(C)(C)C)C(=O)O` [Example 436], the IC50 stood at 5.9 nM.

In the case of `Cc1nc2c(cc(-c3ccnc(-c4ccc5c(cnn5C)c4)c3)n2C)c(-c2ccc(Cl)cc2O)c1[C@H](OC(C)(C)C)C(=O)O` [Example 437], the IC50 came out at 38 nM.

Regarding `CCO[C@H](C(=O)O)c1c(C)nc2c(cc(-c3ccnc(-c4ccc5c(cnn5C)c4)c3)n2C)c1-c1cc(F)c2c(c1C)CCCO2` [Example 438], the IC50 worked out at 4.9 nM.

`CCO[C@H](C(=O)O)c1c(C)nc2c(cc(-c3nnc(-c4ccc5c(cnn5C)c4)o3)n2C)c1-c1cc(F)c2c(c1C)CCCO2` [Example 439]: the IC50 stood at 3 nM.

With `CCO[C@H](C(=O)O)c1c(C)nc2c(cc(-c3nnc(N4CCN(C5CCOCC5)CC4)o3)n2C)c1-c1cc(F)c2c(c1C)CCCO2` [Example 440], the IC50 was determined as 348 nM.

As to `Cc1nc2c(cc(-c3nnc(N4CCN(C5CCOCC5)CC4)o3)n2C)c(-c2cc(F)c3c(c2C)CCCO3)c1[C@H](OC(C)C)C(=O)O` [Example 441], the IC50 came out at 160 nM.

In the case of `Cc1nc2c(cc(-c3nnc(-c4ccc5c(cnn5C)c4)o3)n2C)c(-c2cc(F)c3c(c2C)CCCO3)c1[C@H](OC(C)C)C(=O)O` [Example 442], the IC50 was 5.1 nM.
